In data set [1] the test system is neurological adverse effects caused by a CD3 binding domain. Kind of data set: PPS co-treatment of patient 109-036 during Blinatumomab start and dose escalation: neurological adverse effects. It is filed as in vivo, human. On the procedure:
(§1) Patient was then treated for 7 weeks at 60 μg/m^2/24 h of Blinatumomab.
(§2) 6× CHOP 12/02-04/03 • 2. Induction according to Dexa-BEAM Protocol 05/03 • 3. Autologous SCT 08/03 • Date of last prior treatment: 08/03 • Treatment start: 10.5.2010 • Major Involvement: • 1. Supraclavicular • 2. Mediastinal • 3. Mesenterial (small intestinal involvement?) • 4W CT: PR -63% • 8W CT: CRu:-79% • EOS: 30.7.2010

Data set [2] relates to follicular lymphoma. Kind of data set: Blinatumomab treatment of patient 109-036 (follicular lymphoma): CT tumor response. It is filed as in vivo, human. The settings on record: Blinatumomab 5 μg/m^2/24 h for 1 week, then 60 μg/m^2/24 h, with PPS. The method, then:
as §1, §2
(FL: follicular lymphoma, SCT: stem cell therapy, PR: partial remission, Cru: complete remission (unconfirmed), EOS: end of study).

Data set [3] relates to B cell malignancies. The settings on record: human, in vivo; cited from earlier work.
Data set [4] deals with non-Hodgkin's lymphoma. The following applies: cited from earlier work.
The mark [5] stands for this setting: continuous administration, non-Hodgkin's lymphoma patients.

The text below walks through data of US9486475B2 (AMGEN RESEARCH (MUNICH) GMBH, priority 2013, dated 2016).

As to “β-D-Xylan, (1-4), 2,3-bis(hydrogen sulphate) [PPS]”, in data set [1] (patient 109-036, low B:T cell ratio, PPS 100 mg i.v. bolus 3 h before treatment start and before dose increase (day 8), then 300 mg/24 h for 48 h, Blinatumomab 5 then 60 μg/m^2/24 h), the Apraxia and aphasia entry is “prevented”. Moreover, the “Tremor (remaining neurological adverse effect)” value in data set [1] (patient 109-036, PPS 100 mg i.v. bolus then 300 mg/24 h for 48 h, Blinatumomab escalation to 60 μg/m^2/24 h) is “slight tremor”.
Regarding Blinatumomab, the “4W CT: change” value in data set [2] (4 weeks) is recorded as -63%. In data set [2] (8 weeks), the “8W CT: change” value is recorded as -79% and the “8W CT: response category” value is “CRu”. For the same substance, the “Patients with an early neurological reaction” value in data set [3] is 7 out of 22. In data set [4] (setting [5]), the “Dose level at which partial and complete tumor regressions were first observed” value is 0.015 milligrams/m^2/d; the “Effect on tumor cells in bone marrow and liver” value was “clearance of tumor cells from bone marrow and liver”. In data set [4] (dose level of 0.06 milligrams/m^2/d), the “Patients who experienced a tumor regression” value is given as “all seven”. In addition, in data set [4] (doses as low as 0.005 milligrams per square meter per day, continuous, four weeks), the “Effect on lymphoma target cells in blood” value was “elimination of lymphoma target cells in blood”. Besides, the “Neurological reactions in the clinical trial” value in data set [4] (human, in vivo) is recorded as “neurological reactions have been found”.
